Data taken from patent publication US20220370453A1 (Storm Therapeutics Ltd, priority 2019, published 2022).

Tests used:
BCDIN3D [1] = molecular target: T1, BCDIN3D (Homo sapiens, UniProt Q7Z5W3); assay: BCDIN3D InCellPulse thermal stability assay in transfected A549 cells; assay type: cell-based; conditions: heat shock 58° C. 15 min
T1 sequence (Q7Z5W3 1-292): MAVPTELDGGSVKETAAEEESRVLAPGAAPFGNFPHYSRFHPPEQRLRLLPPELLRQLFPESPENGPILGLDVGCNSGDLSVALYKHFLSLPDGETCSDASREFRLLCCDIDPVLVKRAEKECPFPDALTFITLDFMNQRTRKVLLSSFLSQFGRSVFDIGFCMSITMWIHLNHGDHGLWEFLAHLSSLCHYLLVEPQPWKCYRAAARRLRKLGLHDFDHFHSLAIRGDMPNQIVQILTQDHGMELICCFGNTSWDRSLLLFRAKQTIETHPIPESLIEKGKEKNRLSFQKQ
Protocol: BCDIN3D InCellPulse™ Assay
The thermal stability assay was performed with lipofectamine 3000 transiently transfected A549 using the plasmid pICP-ePL-BCDIN3 Da. This plasmid encodes for BCDIN3D N-terminally fused to a Prolabel (ePL), complementing a split β-Galactosidase Enzyme System InCELL Pulse Technology (InCELL Hunter Detection Kit, DiscoverX/Eurofins, cat: 96-0079L). 20 μl A549 cells (1500 cell/well) were added with a multidrop device to compounds to a final DMSO concentration of 0.6% in 384-well polypropylene plate format in IMDM medium and pre-incubated with the compounds for 1 h at 37° C. and 5% CO2. Subsequently, a heat shock was applied to the entire sealed plate in a 58° C. water bath for 15 min. The plates were cooled to RT, spun down and 25 μl/well of EA Detection Solution at 3.3× (InCELL Hunter Detection Kit) was added per well. 21 μl of the mixture was added to a black 384-well measurement plate (Corning, PS, black, Flat Bottom, #3575), mix for 30 minutes on a plate shaker at RT. Finally, the luminescence was measured with a Perkin Elmer EnVision with 0.2 s measurement time in luminescence mode.

BCDIN3D [2] = molecular target: T1, BCDIN3D; assay: BCDIN3D IC50 RFMS (RapidFire) assay with mini-helix; assay type: biochemical; conditions: 25 nM enzyme
Protocol: The following General Methods details the assay conditions for the Biological assays.
BCDIN3D IC50 RFMS Assay with Mini-Helix
The enzymatic assay was performed in a 384-well polypropylene plate in assay buffer with 25 mM Tris pH 8.0, 10 mM DTT, 1 mM EDTA, 0.03% BSA in a final assay volume of 20 μL. The enzyme with a final concentration of 25 nM was pre-incubated with the respective compound at 1% DMSO final assay concentration over 10 min at room temperature. The reaction was initiated by addition of 0.2 μM final assay concentration of mini-helix and 6 μM final concentration of SAM as substrates. After a 1 hr incubation at 37° C., the reaction was terminated with 40 μL of stop solution of 7.5% trichloroactetic acid in water containing 112.5 nM D4-SAH and 30 nM ^13C10-SAH used as internal standards. The SAH product concentrations as well as both internal standards were analyzed by a RapidFire High Throughput Mass Spectrometry System (Agilent Technologies, Santa Clara, Calif.) using an AP14000 triple quadrupole mass spectrometer (AB Sciex Framingham, Mass.).

[3] = A549 cells transiently transfected with ePL-BCDIN3D, 1 h pre-incubation
[4] = mini-helix 0.2 μM and SAM 6 μM as substrates, 1 hr at 37° C.
[5] = transiently transfected A549 cells
[6] = mini-helix substrate 0.2 μM, SAM 6 μM

Structure (SMILES) | IC50 (BCDIN3D [1]; [3]) [nM] | IC50 (BCDIN3D [2]; [4]) [nM] | IC50 (BCDIN3D [1]; [5]) [nM] | IC50 (BCDIN3D [2]; [6]) [nM]
Cn1ncc2c(Nc3ccc(C(F)(F)F)cc3)nc(NCC3(N)CCCCC3)nc21 [Compound 1.32, N6-[(1-aminocyclohexyl)methyl]-1-methyl-N4-[4-(trifluoromethyl)phenyl]pyrazolo[3,4-d]pyrimidine-4,6-diamine] | 234 | 77.9 |  | 
Cc1nn(C)c2nc(NCC(C)(C)N)nc(Nc3cccc(C(F)(F)F)c3)c12 [Compound 1.33, N6-(2-amino-2-methylpropyl)-1,3-dimethyl-N4-[3-(trifluoromethyl)phenyl]-1H-pyrazolo[3,4-d]pyrimidine-4,6-diamine] | 6460 | 4330 |  | 
Cc1ccc(CNc2nc(NC3CCCCC3N)nc3c2cnn3C)cc1Cl (stereo not drawn) [Compound 1.34, 6-N-(2-aminocyclohexyl)-4-N-[(3-chloro-4-methylphenyl)methyl]-1-methylpyrazolo[3,4-d]pyrimidine-4,6-diamine] | 1410 | 1140 |  | 
Cn1ncc2c(Nc3ccc(C(F)(F)F)nc3)nc(NCC3(N)CCOCC3)nc21 [Compound 1.35, 6-N-[(4-aminooxan-4-yl)methyl]-1-methyl-4-N-[6-(trifluoromethyl)pyridin-3-yl]pyrazolo[3,4-d]pyrimidine-4,6-diamine] | 7880 | 3950 |  | 
Cn1ncc2c(Nc3ccc(C(F)(F)F)cc3)nc(N[C@H]3COC[C@H]3N)nc21 [Compound 1.36, N6-[(3R,4S)-4-aminotetrahydrofuran-3-yl]-1-methyl-N4-[4-(trifluoromethyl)phenyl]pyrazolo[3,4-d]pyrimidine-4,6-diamine] | 10600 | 5660 |  | 
Cc1nn(C)c2nc(NCC(C)(C)N)cc(NCc3cccc(C(F)(F)F)c3)c12 [Compound 1.38, 6-N-(2-Amino-2-methylpropyl)-1,3-dimethyl-4-N-[[3-(trifluoromethyl)phenyl]methyl]pyrazolo[3,4-b]pyridine-4,6-diamine] | 4000 | 8630 |  | 
Cc1ccc(CNc2nc(NCC3(N)CC3)nc3c2cnn3C)cc1Cl [Compound 2.01, 6-N-[(1-Aminocyclopropyl)methyl]-4-N-[(3-chloro-4-methylphenyl)methyl]-1-methylpyrazolo[3,4-d]pyrimidine-4,6-diamine] |  |  | 707 | 275
Cn1ncc2c(NCc3ccc(F)c(Cl)c3)nc(NCC3(N)CC3)nc21 [Compound 2.02, 6-N-[(1-Aminocyclopropyl)methyl]-4-N-[(3-chloro-4-fluorophenyl)methyl]-1-methylpyrazolo[3,4-d]pyrimidine-4,6-diamine] |  |  | 1910 | 505
Cn1ncc2c(Nc3ccc(C(F)(F)F)c(F)c3)nc(NCC3(N)CC3)nc21 [Compound 2.03, N6-[(1-aminocyclopropyl)methyl]-N4-[3-fluoro-4-(trifluoromethyl)phenyl]-1-methyl-pyrazolo[3,4-d]pyrimidine-4,6-diamine] |  |  | 282 | 20.7
COc1ccc(Nc2nc(NCC3(N)CC3)nc3c2cnn3C)cc1Cl [Compound 2.04, 6-N-[(1-aminocyclopropyl)methyl]-4-N-(3-chloro-4-methoxyphenyl)-1-methylpyrazolo[3,4-d]pyrimidine-4,6-diamine] |  |  | 1800 | 60.8
Cn1ncc2c(Nc3ccc(F)cc3F)nc(NCC3(N)CC3)nc21 [Compound 2.05, 6-N-[(1-aminocyclopropyl)methyl]-4-N-(2,4-difluorophenyl)-1-methylpyrazolo[3,4-d]pyrimidine-4,6-diamine] |  |  | 5050 | 1670
Cn1ncc2c(Nc3cccc(C(F)(F)F)c3)nc(NCC3(N)CC3)nc21 [Compound 2.06, 6-N-[(1-aminocyclopropyl)methyl]-1-methyl-4-N-[3-(trifluoromethyl)phenyl]pyrazolo[3,4-d]pyrimidine-4,6-diamine] |  |  | 2210 | 509
Cn1ncc2c(Nc3cccc(C(F)F)c3)nc(NCC3(N)CC3)nc21 [Compound 2.07, 6-N-[(1-aminocyclopropyl)methyl]-4-N-[3-(difluoromethyl)phenyl]-1-methylpyrazolo[3,4-d]pyrimidine-4,6-diamine] |  |  | 4100 | 443
Cn1ncc2c(Nc3ccc(F)cc3)nc(NCC3(N)CC3)nc21 [Compound 2.08, 6-N-[(1-aminocyclopropyl)methyl]-4-N-(4-fluorophenyl)-1-methylpyrazolo[3,4-d]pyrimidine-4,6-diamine] |  |  | 2720 | 242
Cc1ccc(Nc2nc(NCC3(N)CC3)nc3c2cnn3C)cc1Cl [Compound 2.09, 6-N-[(1-aminocyclopropyl)methyl]-4-N-(3-chloro-4-methylphenyl)-1-methylpyrazolo[3,4-d]pyrimidine-4,6-diamine] |  |  | 602 | 39.8
Cn1ncc2c(Nc3cccnc3)nc(NCC3(N)CC3)nc21 [Compound 2.10, 6-N-[(1-aminocyclopropyl)methyl]-1-methyl-4-N-pyridin-3-ylpyrazolo[3,4-d]pyrimidine-4,6-diamine] |  |  | 15700 | 8680
Cn1ncc2c(Nc3ccccc3)nc(NCC3(N)CC3)nc21 [Compound 2.11, 6-N-[(1-aminocyclopropyl)methyl]-1-methyl-4-N-phenylpyrazolo[3,4-d]pyrimidine-4,6-diamine] |  |  | 2890 | 490
Cn1ncc2c(NCc3cccc(Br)c3)nc(NCC3(N)CC3)nc21 [Compound 2.12, 6-N-[(1-aminocyclopropyl)methyl]-4-N-[(3-bromophenyl)methyl]-1-methylpyrazolo[3,4-d]pyrimidine-4,6-diamine] |  |  | 1490 | 588
Cn1ncc2c(NCc3ccc(Br)cc3)nc(NCC3(N)CC3)nc21 [Compound 2.13, 6-N-[(1-aminocyclopropyl)methyl]-4-N-[(4-bromophenyl)methyl]-1-methylpyrazolo[3,4-d]pyrimidine-4,6-diamine] |  |  | 1610 | 369
Cn1ncc2c(Nc3ccc(F)cc3Cl)nc(NCC3(N)CC3)nc21 [Compound 2.14, 6-N-[(1-aminocyclopropyl)methyl]-4-N-(2-chloro-4-fluorophenyl)-1-methylpyrazolo[3,4-d]pyrimidine-4,6-diamine] |  |  | 9590 | 5960
Cn1ncc2c(Nc3ccc(Cl)cc3F)nc(NCC3(N)CC3)nc21 [Compound 2.15, 6-N-[(1-aminocyclopropyl)methyl]-4-N-(4-chloro-2-fluorophenyl)-1-methylpyrazolo[3,4-d]pyrimidine-4,6-diamine] |  |  | 1630 | 446
Cn1ncc2c(Nc3cc(F)cc(Cl)c3)nc(NCC3(N)CC3)nc21 [Compound 2.16, 6-N-[(1-aminocyclopropyl)methyl]-4-N-(3-chloro-5-fluorophenyl)-1-methylpyrazolo[3,4-d]pyrimidine-4,6-diamine] |  |  | 959 | 452
Cn1ncc2c(Nc3ccc(Cl)c(C#N)c3)nc(NCC3(N)CC3)nc21 [Compound 2.17, 5-[[6-[(1-aminocyclopropyl)methylamino]-1-methyl-pyrazolo[3,4-d]pyrimidin-4-yl]amino]-2-chloro-benzonitrile] |  |  | 2560 | 440
Cn1ncc2c(NC34CC(c5ccccc5)(C3)C4)nc(NCC3(N)CC3)nc21 [Compound 2.18, N6-[(1-aminocyclopropyl)methyl]-1-methyl-N4-(1-phenyl-3-bicyclo[1.1.1]pentanyl)pyrazolo[3,4-d]pyrimidine-4,6-diamine] |  |  | 207 | 111
